{"source": "patent US10087449B2", "about": "“Pharmaceutical composition for treating chronic kidney disease” (SHIONOGI & CO., LTD., priority 2014, dated 2018)", "key": {"[1]": {"system": "gene expression of COL1A1, COL3A1 and COL4A1 in NRK49F cells", "test": "Effect of NNMT siRNA on collagen gene expression enhanced by TGFβ in NRK49F cells (quantitative PCR)", "assay_type": "cell-based, rat", "conditions": "TGFβ 5 ng/mL, 48 hr", "protocol": "(§1) The siRNA of NNMT was introduced into NRK49F cells, rat kidney fibroblast cell line, the effect of which on enhanced gene expression of COL1A1, COL3A1 and COL4A1 by TGFβ stimulation was examined (FIG. 4). After NRK49F cells were seeded into 12 well plates at 4×10^4 cells/well/mL and culture for 72 hr, culture medium was changed to antibiotic-free medium and siRNA sequence (F; […] (SEQ ID NO: 2), R; […] (SEQ ID NO: 3)) for rat NNMT purchased was introduced into cells for 24 hr by lipofection method using RNAiMAX (Invitrogen Corp.) which is an introduction reagent of siRNA. Next, culture medium was changed to serum-free medium and after 24 hr, human recombinant TGFβ (R & D Co., Ltd., 5 ng/mL) was added and cultured for 48 hr. After culture, total RNA was extracted from cells and the gene expression levels of NNMT, COL1A1, COL3A1 and COL4A1 were analyzed by quantitative PCR."}, "[2]": {"system": "rat NNMT", "test": "siRNA knock-down of NNMT gene expression in TGFβ-stimulated NRK49F cells (quantitative PCR)", "assay_type": "cell-based", "conditions": "TGFβ 5 ng/mL, 48 hr", "protocol": "as §1"}, "[3]": {"system": "NRK49F cells", "test": "TGFβ stimulation of NRK49F rat kidney fibroblasts, gene expression by quantitative PCR", "assay_type": "cell-based", "protocol": "Effect of stimulation by TGFβ, known as a promoting factor of fibrosis (Refer to Nephrol Dial Transplant., 1998, vol. 13, p. 573-579), on gene expression of NNMT, COL1A1, COL3A1 and COL4A1 was examined using NRK49F cells that are rat kidney fibroblasts. NRK49F cells were seeded into 12 well plates at 4×10^4 cells/well/mL and culture medium was changed to serum-free medium after 72 hr. Recombinant human TGFβ1 (R & D Co., Ltd., 5 ng/mL) was added after 24 hr and the cells were cultured for 6, 24 and 48 hr. After culture, total RNA was extracted from cells and the gene expression levels of NNMT, COL1A1, COL3A1 and COL4A1 were analyzed by quantitative PCR.\nas §1"}}}
{"substance": "siRNA of NNMT: siRNA for rat NNMT, purchased; F CCACAUCCAAUAAUGAAGGACUCUU (SEQ ID NO: 2), R AAGAGUCCUUCAUUAUUGGAUGUGG (SEQ ID NO: 3) (listed as RNA, chemistry not given here)", "values": [{"measurement": "decrease in gene expression of COL1A1", "setting": "[1]; siRNA 0.01 nM", "result": 20, "unit": "%"}, {"measurement": "decrease in gene expression of COL3A1", "setting": "[1]; siRNA 0.01 nM", "result": 20, "unit": "%"}, {"measurement": "decrease in gene expression of COL4A1", "setting": "[1]; siRNA 0.01 nM", "result": 33, "unit": "%"}, {"measurement": "decrease in gene expression of COL1A1", "setting": "[1]; siRNA 0.1 nM", "result": 36, "unit": "%"}, {"measurement": "decrease in gene expression of COL3A1", "setting": "[1]; siRNA 0.1 nM", "result": 31, "unit": "%"}, {"measurement": "decrease in gene expression of COL4A1", "setting": "[1]; siRNA 0.1 nM", "result": 15, "unit": "%"}, {"measurement": "decrease in gene expression of COL1A1", "setting": "[1]; siRNA 1 nM", "result": 78, "unit": "%"}, {"measurement": "decrease in gene expression of COL3A1", "setting": "[1]; siRNA 1 nM", "result": 62, "unit": "%"}, {"measurement": "decrease in gene expression of COL4A1", "setting": "[1]; siRNA 1 nM", "result": 57, "unit": "%"}, {"measurement": "knock-down of gene expression of NNMT", "setting": "[2]; siRNA 0.01 nM", "result": 23, "unit": "%"}, {"measurement": "knock-down of gene expression of NNMT", "setting": "[2]; siRNA 0.1 nM", "result": 45, "unit": "%"}, {"measurement": "knock-down of gene expression of NNMT", "setting": "[2]; siRNA 1 nM", "result": 60, "unit": "%"}]}
{"substance": "TGFβ1: Recombinant human TGFβ1 (R & D Co., Ltd.), promoting factor of fibrosis used as stimulus", "values": [{"measurement": "increase in gene expression of COL1A1", "setting": "[3]; TGFβ 5 ng/mL, 48 hr", "result": 7.1, "unit": "fold"}, {"measurement": "increase in gene expression of COL3A1", "setting": "[3]; TGFβ 5 ng/mL, 48 hr", "result": 6.5, "unit": "fold"}, {"measurement": "increase in gene expression of COL4A1", "setting": "[3]; TGFβ 5 ng/mL, 48 hr", "result": 3.1, "unit": "fold"}, {"measurement": "increase in gene expression of NNMT", "setting": "[3]; TGFβ 5 ng/mL, 48 hr", "result": "about 3.6 fold"}, {"measurement": "gene expression level of COL1A1 over time", "setting": "[3]; TGFβ1 5 ng/mL, 6, 24 and 48 hr", "result": "time-dependent increases"}, {"measurement": "gene expression level of COL3A1 over time", "setting": "[3]; TGFβ1 5 ng/mL, 6, 24 and 48 hr", "result": "time-dependent increases"}, {"measurement": "gene expression level of NNMT over time", "setting": "[3]; TGFβ1 5 ng/mL, 6, 24 and 48 hr", "result": "time-dependent increases"}, {"measurement": "gene expression of COL4A1 over time", "setting": "[3]; TGFβ1 5 ng/mL, 6, 24 and 48 hr", "result": "reached the maximum level in 6 hr and left the plateau to 24 hr"}]}
